Experimental data reported in US20220235064A1 (WELLMARKER BIO CO., LTD., priority 2019, published 2022).
Counter-ions that a name gives are not always drawn.

Columns and labels:
RON tyrosine kinase = target: T1, RON tyrosine kinase (Homo sapiens, UniProt Q04912); assay: Enzyme inhibitory activity against RON tyrosine kinase (TR-FRET); assay type: biochemical; conditions: RON (Carna Bioscience)
T1 construct: purchased Carna Bioscience
Outline: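 Recombinant RON was preincubated with compound for 15 min at RT in 50 mM HEPES pH 7.5, 10 mM MgCl2, 1 mM EGTA, 2 mM DTT, 0.01% Tween-20. Enzyme (0.4 nM), ATP (60 μM) and tyrosine peptide (400 nM) were prepared at 2×, 4× and 4× final. After 60 min at RT, EDTA/Eu-anti-phosphotyrosine stop; IC50 from 665 nm TR-FRET emission.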

[1] = tested on: cancer cell line HT29, in which mutated RON (Δ160) is expressed; assay: Cell-killing efficacy in RON-mutated cancer cell line HT29 (trypan blue); assay type: cell-based; conditions: Homo sapiens, HT-29, 48 hours, trypan blue, n=2, read-out: Cell death (%) Cancer cell line HT29
Protocol: Experimental Example 4: Measurement of Cell-Killing Efficacy of Example Compounds in RON-Mutated Cancer Cell Lines
Each of two colorectal cancer cell lines, that is, the cancer cell line HT29 (30038, KCLB, RPMI+10% FBS), in which mutated RON (Δ160) is expressed, and the cancer cell line SW620 (CCL-227, ATCC, RPMI+10% FBS), in which mutated RON (Δ155) is expressed, was dispensed into each 60 mm^2 dish at 1×10^5 cells. After 24 hours, the dish was treated with each of the example compounds at a concentration of 1 μM or 5 μM while performing medium exchange, and then reaction was allowed to proceed for 48 hours. After 48 hours, centrifugation was performed for 4 minutes at 1,500 rpm to collect cells and cell fluid. Thereafter, living cells and dead cells were quantified (n=2) using a trypan blue solution (15250-061, Gibco), and statistical analysis was performed using Excel-T-test. Here, as a negative control, only a solvent (0.10% DMSO) was used; and as a positive control, N-(4-(2-amino-3-chloropyridin-4-yloxy)-3-fluorophenyl)-4-ethoxy-1-(4-fluorophenyl)-2-oxo-1,2-dihydropyridine-3-carboxamide, which is the compound of Example 1 in WO 2008/058229 A1, was used.

[2] = tested on: cancer cell line KM12C, in which RON is activated; assay: Cell-killing efficacy in RON-activated cancer cell line (trypan blue); assay type: cell-based; conditions: Homo sapiens, 48 hours, trypan blue, n=2, read-out: Cell death (%) Cancer cell line KM12C
Outline: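 KM12C cells seeded 1×10^5 per 60 mm^2 dish in MEM + 10% FBS, then exposed 24 h later to compound at 1 μM or 5 μM for 48 h.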

[3] = tested on: cancer cell line KM12C, in which RON is activated; assay: Cell growth inhibitory ability in RON-activated cancer cell line (MTS); assay type: cell-based; conditions: Homo sapiens, 48 hours, absorbance 490 nm
Outline: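 KM12C cells (RON-activated, MEM with FBS) exposed to compound […] for 48 h. MTS added 24 h after treatment ended, incubated 4 h at 37° C, absorbance read at 490 nm. IC50 derived from absorbance.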

T1 sequence (Q04912 25-1400): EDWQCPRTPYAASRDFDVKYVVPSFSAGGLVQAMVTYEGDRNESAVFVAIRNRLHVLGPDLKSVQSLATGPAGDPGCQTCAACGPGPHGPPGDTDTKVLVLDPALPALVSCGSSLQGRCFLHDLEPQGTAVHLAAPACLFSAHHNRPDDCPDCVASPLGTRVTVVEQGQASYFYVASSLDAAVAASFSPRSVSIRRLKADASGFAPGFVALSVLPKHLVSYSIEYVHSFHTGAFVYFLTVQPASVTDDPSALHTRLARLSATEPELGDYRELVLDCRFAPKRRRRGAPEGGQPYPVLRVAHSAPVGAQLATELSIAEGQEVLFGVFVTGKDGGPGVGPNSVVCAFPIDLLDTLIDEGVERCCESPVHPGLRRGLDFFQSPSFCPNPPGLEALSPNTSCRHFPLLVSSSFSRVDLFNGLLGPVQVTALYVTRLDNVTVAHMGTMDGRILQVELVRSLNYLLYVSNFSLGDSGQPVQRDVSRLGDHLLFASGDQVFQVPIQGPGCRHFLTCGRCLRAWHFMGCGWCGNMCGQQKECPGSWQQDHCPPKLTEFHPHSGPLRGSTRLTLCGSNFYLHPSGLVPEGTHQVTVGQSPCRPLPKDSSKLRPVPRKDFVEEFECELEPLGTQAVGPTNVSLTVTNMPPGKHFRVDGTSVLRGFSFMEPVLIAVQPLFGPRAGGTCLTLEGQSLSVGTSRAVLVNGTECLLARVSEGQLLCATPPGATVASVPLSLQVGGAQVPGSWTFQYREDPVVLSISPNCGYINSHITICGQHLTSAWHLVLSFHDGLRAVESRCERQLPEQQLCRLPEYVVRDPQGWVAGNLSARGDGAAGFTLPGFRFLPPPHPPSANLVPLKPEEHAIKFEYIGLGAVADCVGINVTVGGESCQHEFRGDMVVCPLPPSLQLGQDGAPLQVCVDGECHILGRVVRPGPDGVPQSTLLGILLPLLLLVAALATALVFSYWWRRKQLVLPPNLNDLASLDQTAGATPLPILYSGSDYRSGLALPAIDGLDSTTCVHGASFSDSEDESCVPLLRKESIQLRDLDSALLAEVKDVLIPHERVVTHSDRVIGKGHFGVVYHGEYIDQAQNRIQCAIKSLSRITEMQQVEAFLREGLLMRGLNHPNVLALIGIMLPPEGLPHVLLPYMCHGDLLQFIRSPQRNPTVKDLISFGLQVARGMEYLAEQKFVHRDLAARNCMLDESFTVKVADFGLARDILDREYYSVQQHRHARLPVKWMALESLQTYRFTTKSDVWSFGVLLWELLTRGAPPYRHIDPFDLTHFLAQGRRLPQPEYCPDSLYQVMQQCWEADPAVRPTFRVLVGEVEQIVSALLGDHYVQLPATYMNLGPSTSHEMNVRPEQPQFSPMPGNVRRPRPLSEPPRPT

SMILES	IC50 (RON tyrosine kinase) [nM]	cytotoxicity at 1 µM ([1]; 1 μM) [%]	cytotoxicity at 5 µM ([1]; 5 μM) [%]	cytotoxicity at 1 µM [2] [%]	cytotoxicity at 5 µM [2] [%]	IC50 [3] [nM]
Cn1ncc2cc(Oc3ccc(NC(=O)c4c5c(cn(-c6ccc(F)cc6)c4=O)CCO5)cc3F)c(-c3cn[nH]c3)cc21 [Example 64]	14.2	16	18.8	13.1	97.1	
O=C(Nc1ccc(Oc2ccnc3cc(OCCCN4CCOCC4)c(Cl)cc23)c(F)c1)c1c2c(cn(-c3ccc(F)cc3)c1=O)CCO2 [Example 172, N-(4-((6-Chloro-7-(3-morpholinopropoxy)quinolin-4-yl)oxy)-3-fluorophenyl)-5-(4-fluorophenyl)-6-oxo-2,3,5,6-tetrahydrofuro[3,2-c]pyridine-7-carboxamide]	7.44			3.19	11.6	15
COc1cc2nccc(Oc3ccc(NC(=O)c4c5c(cn(-c6ccc(F)cc6)c4=O)CCO5)cc3F)c2cc1C(N)=O [Example 47, N-(4-((6-Carbamoyl-7-methoxyquinolin-4-yl)oxy)-3-fluorophenyl)-5-(4-fluorophenyl)-6-oxo-2,3,5,6-tetrahydrofuro[3,2-c]pyridine-7-carboxamide]	0.47			18	30.9	2
COc1cc2c(Oc3ccc(NC(=O)c4c5c(cn(-c6ccc(F)cc6)c4=O)CCO5)cc3F)ccnc2cc1OCCN1CCOCC1 [Example 78, N-(3-Fluoro-4-((6-methoxy-7-(2-morpholinoethoxy)quinolin-4-yl)oxy)phenyl)-5-(4-fluorophenyl)-6-oxo-2,3,5,6-tetrahydrofuro[3,2-c]pyridine-7-carboxamide]	2.63			23.5	23.9	2
CNC(=O)c1cc2c(Oc3ccc(NC(=O)c4c5c(cn(-c6ccc(F)cc6)c4=O)CCO5)cc3F)ccnc2cc1OC [Example 48, N-(3-Fluoro-4-((7-methoxy-6-(methylcarbamoyl)quinolin-4-yl)oxy)phenyl)-5-(4-fluorophenyl)-6-oxo-2,3,5,6-tetrahydrofuro[3,2-c]pyridine-7-carboxamide]	0.85			18.9	15.5	1
COc1cc2nccc(Oc3ccc(NC(=O)c4c5c(cn(-c6ccc(F)cc6)c4=O)CCO5)cc3F)c2cc1NC(=O)CCN1CCOCC1 [Example 180, N-(3-Fluoro-4-((7-methoxy-6-(3-morpholinopropanamido)quinolin-4-yl)oxy)phenyl)-5-(4-fluorophenyl)-6-oxo-2,3,5,6-tetrahydrofuro[3,2-c]pyridine-7-carboxamide]	6.83			18.1	20.6	3
CN1CCN(CCCOc2ccc3c(Oc4ccc(NC(=O)c5c6c(cn(-c7ccc(F)cc7)c5=O)CCO6)cc4F)ccnc3c2)CC1 [Example 160, N-(3-Fluoro-4-((7-(3-(4-methylpiperazin-1-yl)propoxy)quinolin-4-yl)oxy)phenyl)-5-(4-fluorophenyl)-6-oxo-2,3,5,6-tetrahydrofuro[3,2-c]pyridine-7-carboxamide]	1.01			12.7	19.4	6
O=C(Nc1ccc(Oc2ccnc3cc(-c4ccc(CN5CCOCC5)cn4)sc23)c(F)c1)c1c2c(cn(-c3ccccc3)c1=O)CCO2 [Example 6, N-(3-Fluoro-4-((2-(5-(morpholinomethyl)pyridin-2-yl)thieno[3,2-b]pyridin-7-yl)oxy)phenyl)-6-oxo-5-phenyl-2,3,5,6-tetrahydrofuro[3,2-c]pyridine-7-carboxamide hydrochloride]	1.43			29.3	34.3	2
COc1cc2nccc(Oc3ccc(NC(=O)c4c5c(cn(-c6ccc(F)cc6)c4=O)CCO5)cc3F)c2cc1C(=O)NCCN1CCOCC1 [Example 50, N-(3-Fluoro-4-((7-methoxy-6-((2-morpholinoethyl)carbamoyl)quinolin-4-yl)oxy)phenyl)-5-(4-fluorophenyl)-6-oxo-2,3,5,6-tetrahydrofuro[3,2-c]pyridine-7-carboxamide]	1.18			19.4	32.3	2
CNC(=O)c1cc2nccc(Oc3ccc(NC(=O)c4c5c(cn(-c6ccc(F)cc6)c4=O)CCO5)cc3F)c2cc1OC [Example 165, N-(3-Fluoro-4-((6-methoxy-7-(methylcarbamoyl)quinolin-4-yl)oxy)phenyl)-5-(4-fluorophenyl)-6-oxo-2,3,5,6-tetrahydrofuro[3,2-c]pyridine-7-carboxamide]	0.45			7.3	32.9	3
COc1cc2nccc(Oc3ccc(NC(=O)c4c5c(cn(-c6ccccc6)c4=O)CCO5)cc3F)c2cc1OC [Example 41, N-(4-((6,7-Dimethoxyquinolin-4-yl)oxy)-3-fluorophenyl)-6-oxo-5-phenyl-2,3,5,6-tetrahydrofuro[3,2-c]pyridine-7-carboxamide]	2.86			16	21.4	2
CNC(=O)c1cc2c(Oc3ccc(NC(=O)c4c5c(cn(-c6ccc(F)cc6)c4=O)CCO5)cc3F)ccnc2cc1OCCCN1CCOCC1 [Example 164, N-(3-Fluoro-4-((6-(methylcarbamoyl)-7-(3-morpholinopropoxy)quinolin-4-yl)oxy)phenyl)-5-(4-fluorophenyl)-6-oxo-2,3,5,6-tetrahydrofuro[3,2-c]pyridine-7-carboxamide]	1.46			19.4	29.7	1
COc1cc2ncnc(Oc3ccc(NC(=O)c4c5c(cn(-c6ccc(F)cc6)c4=O)CCO5)cc3F)c2cc1OC [Example 46, N-(4-((6,7-Dimethoxyquinazolin-4-yl)oxy)-3-fluorophenyl)-5-(4-fluorophenyl)-6-oxo-2,3,5,6-tetrahydrofuro[3,2-c]pyridine-7-carboxamide]	2.39			23.7	27.4	6
O=C(Nc1ccc(Oc2ccnc3cc(OCCCN4CCCCC4)ccc23)c(F)c1)c1c2c(cn(-c3ccc(F)cc3)c1=O)CCO2 [Example 161]	0.61			23.4	22	7
COc1cc2nccc(Oc3ccc(NC(=O)c4c5c(cn(-c6ccc(F)cc6)c4=O)CCO5)cc3F)c2cc1OCCCN1CCOCC1 [Example 176, N-(3-Fluoro-4-((7-methoxy-6-(3-morpholinopropoxy)quinolin-4-yl)oxy)phenyl)-5-(4-fluorophenyl)-6-oxo-2,3,5,6-tetrahydrofuro[3,2-c]pyridine-7-carboxamide]	0.1			4.1	20.2	2
CNC(=O)c1cc2nccc(Oc3ccc(NC(=O)c4c5c(cn(-c6ccc(F)cc6)c4=O)CCO5)cc3F)c2cc1OCCN1CCOCC1 [Example 166, N-(3-Fluoro-4-((7-(methylcarbamoyl)-6-(2-morpholinoethoxy)quinolin-4-yl)oxy)phenyl)-5-(4-fluorophenyl)-6-oxo-2,3,5,6-tetrahydrofuro[3,2-c]pyridine-7-carboxamide]	1.9			11.4	14.9	16
COc1cc2c(Oc3ccc(NC(=O)c4c5c(cn(-c6ccc(F)cc6)c4=O)CCO5)cc3F)ccnc2cc1OCCCN1CCN(C)CC1 [Example 80, N-(3-Fluoro-4-((6-methoxy-7-(3-(4-methylpiperazin-1-yl)propoxy)quinolin-4-yl)oxy)phenyl)-5-(4-fluorophenyl)-6-oxo-2,3,5,6-tetrahydrofuro[3,2-c]pyridine-7-carboxamide]	1.3			19.5	19.9	3
